System: AMO1
Experiment: Cytotoxicity against human AMO1 cells measured after 8 days
Type: functional, cell-based
Details: AMO1, 192 h

SMILES | IC50 [µM]
C/C=C/Cn1cc(-c2cc(OC)c(C(=O)N3CCOCC3)cc2OC)c2cc(C)[nH]c2c1=O | 2

System: EB-3
Experiment: Cytotoxicity against human EB-3 cells measured after 8 days
Type: functional, cell-based
Details: EB-3, 192 h

SMILES | IC50 [µM]
C/C=C/Cn1cc(-c2cc(OC)c(C(=O)N3CCOCC3)cc2OC)c2cc(C)[nH]c2c1=O | 2

System: not listed separately
Experiment: Cytotoxicity against human MOLM16 cells measured after 8 days
Type: functional, cell-based, MOLM-16
Details: MOLM16, 192 h

SMILES | IC50 [µM]
C/C=C/Cn1cc(-c2cc(OC)c(C(=O)N3CCOCC3)cc2OC)c2cc(C)[nH]c2c1=O | 2

System: NCI-H1355
Experiment: Cytotoxicity against human NCI-H1355 cells measured after 8 days
Type: functional, cell-based
Details: NCI-H1355, 192 h

SMILES | IC50 [µM]
C/C=C/Cn1cc(-c2cc(OC)c(C(=O)N3CCOCC3)cc2OC)c2cc(C)[nH]c2c1=O | 2

System: not listed separately
Experiment: Cytotoxicity against human NCI-H2023 cells measured after 8 days
Type: functional, cell-based
Details: NCI-H2023, 192 h

SMILES | IC50 [µM]
C/C=C/Cn1cc(-c2cc(OC)c(C(=O)N3CCOCC3)cc2OC)c2cc(C)[nH]c2c1=O | 2

System: not listed separately
Experiment: Cytotoxicity against human NCI-H2110 cells measured after 8 days
Type: functional, cell-based
Details: NCI-H2110, 192 h

SMILES | IC50 [µM]
C/C=C/Cn1cc(-c2cc(OC)c(C(=O)N3CCOCC3)cc2OC)c2cc(C)[nH]c2c1=O | 2

System: NCI-H82
Experiment: Cytotoxicity against human NCI-H82 cells measured after 8 days
Type: functional, cell-based
Details: NCI-H82, 192 h

SMILES | IC50 [µM]
C/C=C/Cn1cc(-c2cc(OC)c(C(=O)N3CCOCC3)cc2OC)c2cc(C)[nH]c2c1=O | 2

System: RERF-LC-MS
Experiment: Cytotoxicity against human RERF-LC-MS cells measured after 8 days
Type: functional, cell-based
Details: 192 h

SMILES | IC50 [µM]
C/C=C/Cn1cc(-c2cc(OC)c(C(=O)N3CCOCC3)cc2OC)c2cc(C)[nH]c2c1=O | 2

System: ONS-76
Experiment: Cytotoxicity against human ONS-76 cells measured after 8 days
Type: functional, cell-based
Details: ONS-76, 192 h

SMILES | IC50 [µM]
C/C=C/Cn1cc(-c2cc(OC)c(C(=O)N3CCOCC3)cc2OC)c2cc(C)[nH]c2c1=O | 2

System: HCC38
Experiment: Cytotoxicity against human HCC38 cells measured after 8 days
Type: functional, cell-based
Details: HCC38, 192 h

SMILES | IC50 [µM]
C/C=C/Cn1cc(-c2cc(OC)c(C(=O)N3CCOCC3)cc2OC)c2cc(C)[nH]c2c1=O | 2

System: not listed separately
Experiment: Cytotoxicity against human OV7 cells measured after 8 days
Type: functional, cell-based
Details: OV7, 192 h

SMILES | IC50 [µM]
C/C=C/Cn1cc(-c2cc(OC)c(C(=O)N3CCOCC3)cc2OC)c2cc(C)[nH]c2c1=O | 2

System: not listed separately
Experiment: Cytotoxicity against human OVCAR433 cells measured after 8 days
Type: functional, cell-based
Details: OVCAR433, 192 h

SMILES | IC50 [µM]
C/C=C/Cn1cc(-c2cc(OC)c(C(=O)N3CCOCC3)cc2OC)c2cc(C)[nH]c2c1=O | 2

System: SK-BR-3
Experiment: Cytotoxicity against human SK-BR-3 cells measured after 8 days
Type: functional, cell-based
Details: SK-BR-3, 192 h

SMILES | IC50 [µM]
C/C=C/Cn1cc(-c2cc(OC)c(C(=O)N3CCOCC3)cc2OC)c2cc(C)[nH]c2c1=O | 2

System: not listed separately
Experiment: Cytotoxicity against human ATRFLOX cells measured after 8 days
Type: functional, cell-based
Details: 192 h

SMILES | IC50 [µM]
C/C=C/Cn1cc(-c2cc(OC)c(C(=O)N3CCOCC3)cc2OC)c2cc(C)[nH]c2c1=O | 2

System: COLO 205
Experiment: Cytotoxicity against human COLO 205 cells measured after 8 days
Type: functional, cell-based
Details: COLO 205, 192 h

SMILES | IC50 [µM]
C/C=C/Cn1cc(-c2cc(OC)c(C(=O)N3CCOCC3)cc2OC)c2cc(C)[nH]c2c1=O | 2

System: COLO-741
Experiment: Cytotoxicity against human COLO-741 cells measured after 8 days
Type: functional, cell-based
Details: COLO-741, 192 h

SMILES | IC50 [µM]
C/C=C/Cn1cc(-c2cc(OC)c(C(=O)N3CCOCC3)cc2OC)c2cc(C)[nH]c2c1=O | 2

System: NCI-H28
Experiment: Cytotoxicity against human NCI-H28 cells measured after 8 days
Type: functional, cell-based
Details: NCI-H28, 192 h

SMILES | IC50 [µM]
C/C=C/Cn1cc(-c2cc(OC)c(C(=O)N3CCOCC3)cc2OC)c2cc(C)[nH]c2c1=O | 2

System: RKO
Experiment: Cytotoxicity against human RKO cells measured after 8 days
Type: functional, cell-based
Details: 192 h

SMILES | IC50 [µM]
C/C=C/Cn1cc(-c2cc(OC)c(C(=O)N3CCOCC3)cc2OC)c2cc(C)[nH]c2c1=O | 2

System: SNU-C1
Experiment: Cytotoxicity against human SNU-C1 cells measured after 8 days
Type: functional, cell-based
Details: SNU-C1, 192 h

SMILES | IC50 [µM]
C/C=C/Cn1cc(-c2cc(OC)c(C(=O)N3CCOCC3)cc2OC)c2cc(C)[nH]c2c1=O | 2

System: SW48
Experiment: Cytotoxicity against human SW48 cells measured after 8 days
Type: functional, cell-based
Details: SW48, 192 h

SMILES | IC50 [µM]
C/C=C/Cn1cc(-c2cc(OC)c(C(=O)N3CCOCC3)cc2OC)c2cc(C)[nH]c2c1=O | 2

System: Hs 294T
Experiment: Cytotoxicity against human Hs294T cells measured after 8 days
Type: functional, cell-based
Details: 192 h

SMILES | IC50 [µM]
C/C=C/Cn1cc(-c2cc(OC)c(C(=O)N3CCOCC3)cc2OC)c2cc(C)[nH]c2c1=O | 2

System: MEL-JUSO
Experiment: Cytotoxicity against human MEL-JUSO cells measured after 8 days
Type: functional, cell-based
Details: 192 h

SMILES | IC50 [µM]
C/C=C/Cn1cc(-c2cc(OC)c(C(=O)N3CCOCC3)cc2OC)c2cc(C)[nH]c2c1=O | 2

System: DV-90
Experiment: Cytotoxicity against human DV-90 cells measured after 8 days
Type: functional, cell-based
Details: DV-90, 192 h

SMILES | IC50 [µM]
C/C=C/Cn1cc(-c2cc(OC)c(C(=O)N3CCOCC3)cc2OC)c2cc(C)[nH]c2c1=O | 2

System: not listed separately
Experiment: Cytotoxicity against human HCC4019 cells measured after 8 days
Type: functional, cell-based
Details: HCC4019, 192 h

SMILES | IC50 [µM]
C/C=C/Cn1cc(-c2cc(OC)c(C(=O)N3CCOCC3)cc2OC)c2cc(C)[nH]c2c1=O | 2

Target: T1, Bromodomain-containing protein 1 (Homo sapiens, UniProt O95696)
T1 sequence (O95696 whole entry): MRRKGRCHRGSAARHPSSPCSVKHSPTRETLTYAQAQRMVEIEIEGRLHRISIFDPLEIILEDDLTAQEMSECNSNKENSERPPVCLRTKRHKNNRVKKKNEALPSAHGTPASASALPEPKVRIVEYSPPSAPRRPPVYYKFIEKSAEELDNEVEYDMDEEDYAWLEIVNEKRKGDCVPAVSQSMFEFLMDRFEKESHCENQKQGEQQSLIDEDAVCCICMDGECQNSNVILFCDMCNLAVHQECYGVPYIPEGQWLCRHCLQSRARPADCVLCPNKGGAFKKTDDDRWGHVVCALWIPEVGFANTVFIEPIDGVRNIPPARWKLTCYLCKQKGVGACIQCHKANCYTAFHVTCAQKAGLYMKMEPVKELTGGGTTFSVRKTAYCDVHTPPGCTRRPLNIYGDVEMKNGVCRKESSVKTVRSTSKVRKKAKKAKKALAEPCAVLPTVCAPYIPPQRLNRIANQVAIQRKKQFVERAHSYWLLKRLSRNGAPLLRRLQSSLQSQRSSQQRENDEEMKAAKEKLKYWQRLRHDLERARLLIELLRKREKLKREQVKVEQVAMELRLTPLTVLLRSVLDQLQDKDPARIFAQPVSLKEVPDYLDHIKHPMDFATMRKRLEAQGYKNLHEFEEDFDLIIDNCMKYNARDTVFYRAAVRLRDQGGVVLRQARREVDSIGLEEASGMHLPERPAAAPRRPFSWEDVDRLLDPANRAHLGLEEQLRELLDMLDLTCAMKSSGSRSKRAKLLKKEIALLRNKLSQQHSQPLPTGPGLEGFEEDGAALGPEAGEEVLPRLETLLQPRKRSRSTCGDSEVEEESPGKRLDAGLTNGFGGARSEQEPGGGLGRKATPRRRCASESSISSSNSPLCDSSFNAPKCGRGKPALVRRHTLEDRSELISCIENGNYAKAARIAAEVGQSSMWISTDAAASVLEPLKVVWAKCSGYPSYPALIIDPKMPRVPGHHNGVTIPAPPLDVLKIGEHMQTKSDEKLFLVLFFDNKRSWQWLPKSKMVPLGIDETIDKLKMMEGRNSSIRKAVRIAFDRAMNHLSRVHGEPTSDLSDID
Experiment: Binding affinity to human partial length BRD1 (E556 to A688 residues) expressed in bacterial expression system by BROMOscan assay
Details: not given

SMILES | Kd [µM]
C/C=C/Cn1cc(-c2cc(OC)c(C(=O)N3CCOCC3)cc2OC)c2cc(C)[nH]c2c1=O | > 10

Target: Bromodomain-containing protein 4 (Homo sapiens, UniProt O60885)
Experiment: Binding affinity to BRD4 bromodomain 1/2 long isoform (unknown origin) by BROMOscan assay
Details: not given

SMILES | Kd [µM]
C/C=C/Cn1cc(-c2cc(OC)c(C(=O)N3CCOCC3)cc2OC)c2cc(C)[nH]c2c1=O | > 10

Target: Bromodomain testis-specific protein (Homo sapiens, UniProt Q58F21)
Experiment: Binding affinity to human partial length BRDT bromodomain 2 (K250 to E382 residues) expressed in bacterial expression system by BROMOscan assay
Details: not given

SMILES | Kd [µM]
C/C=C/Cn1cc(-c2cc(OC)c(C(=O)N3CCOCC3)cc2OC)c2cc(C)[nH]c2c1=O | > 10

Target: Mitogen-activated protein kinase 14 (Homo sapiens) (UniProt Q16539)
Sequence (Q16539 whole entry): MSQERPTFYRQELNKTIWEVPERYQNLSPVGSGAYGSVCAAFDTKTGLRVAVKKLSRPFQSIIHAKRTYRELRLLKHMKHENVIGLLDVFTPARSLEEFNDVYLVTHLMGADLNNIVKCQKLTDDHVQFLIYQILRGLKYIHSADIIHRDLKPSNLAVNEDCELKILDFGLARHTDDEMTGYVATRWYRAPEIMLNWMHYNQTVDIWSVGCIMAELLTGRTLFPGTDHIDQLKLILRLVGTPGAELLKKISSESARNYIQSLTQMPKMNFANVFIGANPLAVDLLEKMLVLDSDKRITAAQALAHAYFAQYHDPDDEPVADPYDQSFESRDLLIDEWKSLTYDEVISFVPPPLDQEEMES
Experiment: Inhibition of p38alpha (unknown origin) at 1 uM relative to control
Details: not given

SMILES | inhibition [%]
C/C=C/Cn1cc(-c2cc(OC)c(C(=O)N3CCOCC3)cc2OC)c2cc(C)[nH]c2c1=O | 3

Target: cAMP-dependent protein kinase (PKA) (Homo sapiens) (UniProt P22694+P17612+P22612)
Experiment: Inhibition of PKA (unknown origin) at 1 uM relative to control
Type: protein assay
Details: not given

SMILES | inhibition [%]
C/C=C/Cn1cc(-c2cc(OC)c(C(=O)N3CCOCC3)cc2OC)c2cc(C)[nH]c2c1=O | 6

Target: Proto-oncogene tyrosine-protein kinase receptor Ret (Homo sapiens) (UniProt P07949)
Sequence (P07949 whole entry): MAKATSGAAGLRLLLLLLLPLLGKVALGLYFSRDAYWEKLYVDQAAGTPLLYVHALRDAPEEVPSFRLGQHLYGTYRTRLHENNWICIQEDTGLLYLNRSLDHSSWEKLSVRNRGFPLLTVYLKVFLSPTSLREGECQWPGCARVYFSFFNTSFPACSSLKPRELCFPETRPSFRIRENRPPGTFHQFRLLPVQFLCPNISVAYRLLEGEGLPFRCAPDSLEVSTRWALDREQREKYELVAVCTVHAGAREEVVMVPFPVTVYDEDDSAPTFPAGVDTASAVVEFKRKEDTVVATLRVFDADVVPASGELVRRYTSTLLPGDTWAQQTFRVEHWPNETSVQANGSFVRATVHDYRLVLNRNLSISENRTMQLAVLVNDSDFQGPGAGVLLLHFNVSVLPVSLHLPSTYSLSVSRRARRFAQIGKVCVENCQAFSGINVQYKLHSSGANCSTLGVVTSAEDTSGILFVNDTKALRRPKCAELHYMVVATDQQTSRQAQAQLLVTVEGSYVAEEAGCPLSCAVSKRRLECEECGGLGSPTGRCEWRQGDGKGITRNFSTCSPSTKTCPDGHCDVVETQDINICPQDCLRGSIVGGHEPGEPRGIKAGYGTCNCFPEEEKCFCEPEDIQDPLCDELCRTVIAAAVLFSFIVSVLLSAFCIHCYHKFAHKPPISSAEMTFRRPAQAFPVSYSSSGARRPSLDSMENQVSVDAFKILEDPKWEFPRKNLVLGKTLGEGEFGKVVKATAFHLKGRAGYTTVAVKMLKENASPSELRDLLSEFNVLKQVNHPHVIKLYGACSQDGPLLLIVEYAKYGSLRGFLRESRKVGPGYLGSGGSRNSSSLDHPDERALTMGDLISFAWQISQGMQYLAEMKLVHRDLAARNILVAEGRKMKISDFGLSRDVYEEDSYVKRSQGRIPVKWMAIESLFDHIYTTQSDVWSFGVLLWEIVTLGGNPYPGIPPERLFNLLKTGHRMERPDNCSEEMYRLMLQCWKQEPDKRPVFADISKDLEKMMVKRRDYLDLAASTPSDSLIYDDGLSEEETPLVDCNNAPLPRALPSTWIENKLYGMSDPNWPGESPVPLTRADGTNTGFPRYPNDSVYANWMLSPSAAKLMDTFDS
Experiment: Inhibition of Ret (unknown origin) at 1 uM relative to control
Details: not given

SMILES | inhibition [%]
C/C=C/Cn1cc(-c2cc(OC)c(C(=O)N3CCOCC3)cc2OC)c2cc(C)[nH]c2c1=O | 3

Target: Serine/threonine-protein kinase SIK2 (Homo sapiens) (UniProt Q9H0K1)
Sequence (Q9H0K1 whole entry, looked up): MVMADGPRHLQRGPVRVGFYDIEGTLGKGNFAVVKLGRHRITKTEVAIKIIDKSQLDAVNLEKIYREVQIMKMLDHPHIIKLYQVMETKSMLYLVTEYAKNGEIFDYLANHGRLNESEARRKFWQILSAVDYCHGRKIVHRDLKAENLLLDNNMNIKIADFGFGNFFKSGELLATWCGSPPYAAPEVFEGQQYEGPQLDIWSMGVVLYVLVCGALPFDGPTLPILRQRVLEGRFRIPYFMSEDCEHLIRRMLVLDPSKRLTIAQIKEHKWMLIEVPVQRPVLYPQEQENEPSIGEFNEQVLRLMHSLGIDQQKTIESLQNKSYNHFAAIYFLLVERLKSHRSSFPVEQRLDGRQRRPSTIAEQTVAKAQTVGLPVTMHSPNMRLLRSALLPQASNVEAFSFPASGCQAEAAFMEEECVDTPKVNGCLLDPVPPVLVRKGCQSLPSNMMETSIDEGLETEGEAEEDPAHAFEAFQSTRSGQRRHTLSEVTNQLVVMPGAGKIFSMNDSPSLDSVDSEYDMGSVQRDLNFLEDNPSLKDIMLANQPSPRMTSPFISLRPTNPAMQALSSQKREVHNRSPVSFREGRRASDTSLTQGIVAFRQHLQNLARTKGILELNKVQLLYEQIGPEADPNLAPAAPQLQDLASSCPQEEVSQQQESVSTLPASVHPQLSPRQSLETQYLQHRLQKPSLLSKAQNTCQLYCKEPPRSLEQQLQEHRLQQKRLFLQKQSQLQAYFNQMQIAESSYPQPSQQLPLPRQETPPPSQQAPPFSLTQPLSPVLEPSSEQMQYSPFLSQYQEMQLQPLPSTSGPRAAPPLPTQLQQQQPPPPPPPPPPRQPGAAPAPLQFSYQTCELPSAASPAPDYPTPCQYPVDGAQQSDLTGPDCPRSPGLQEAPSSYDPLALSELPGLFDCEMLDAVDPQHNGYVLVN
Experiment: Inhibition of SIK2 (unknown origin) at 1 uM relative to control
Details: not given

SMILES | inhibition [%]
C/C=C/Cn1cc(-c2cc(OC)c(C(=O)N3CCOCC3)cc2OC)c2cc(C)[nH]c2c1=O | 1.5

Target: 5-hydroxytryptamine receptor 2A (Homo sapiens) (UniProt P28223)
Sequence (P28223 whole entry): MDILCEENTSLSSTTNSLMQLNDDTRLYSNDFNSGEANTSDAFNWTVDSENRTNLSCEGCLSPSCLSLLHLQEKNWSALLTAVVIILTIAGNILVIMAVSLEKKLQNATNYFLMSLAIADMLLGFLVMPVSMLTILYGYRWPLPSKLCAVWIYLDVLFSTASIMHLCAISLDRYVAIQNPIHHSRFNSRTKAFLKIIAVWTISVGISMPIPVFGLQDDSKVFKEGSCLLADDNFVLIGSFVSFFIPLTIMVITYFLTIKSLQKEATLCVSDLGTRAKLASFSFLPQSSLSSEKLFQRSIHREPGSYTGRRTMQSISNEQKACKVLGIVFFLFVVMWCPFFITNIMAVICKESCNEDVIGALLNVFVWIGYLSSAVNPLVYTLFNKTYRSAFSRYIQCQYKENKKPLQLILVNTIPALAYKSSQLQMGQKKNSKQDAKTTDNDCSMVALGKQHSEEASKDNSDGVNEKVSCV
Experiment: Displacement of [3H]ketanserin human recombinant 5-HT2A receptor at 10 uM after 60 mins by scintillation counting analysis relative to control
Details: not given

SMILES | Activity [%]
C/C=C/Cn1cc(-c2cc(OC)c(C(=O)N3CCOCC3)cc2OC)c2cc(C)[nH]c2c1=O | 15

Target: 5-hydroxytryptamine receptor 2B (Homo sapiens) (UniProt P41595)
Sequence (P41595 whole entry): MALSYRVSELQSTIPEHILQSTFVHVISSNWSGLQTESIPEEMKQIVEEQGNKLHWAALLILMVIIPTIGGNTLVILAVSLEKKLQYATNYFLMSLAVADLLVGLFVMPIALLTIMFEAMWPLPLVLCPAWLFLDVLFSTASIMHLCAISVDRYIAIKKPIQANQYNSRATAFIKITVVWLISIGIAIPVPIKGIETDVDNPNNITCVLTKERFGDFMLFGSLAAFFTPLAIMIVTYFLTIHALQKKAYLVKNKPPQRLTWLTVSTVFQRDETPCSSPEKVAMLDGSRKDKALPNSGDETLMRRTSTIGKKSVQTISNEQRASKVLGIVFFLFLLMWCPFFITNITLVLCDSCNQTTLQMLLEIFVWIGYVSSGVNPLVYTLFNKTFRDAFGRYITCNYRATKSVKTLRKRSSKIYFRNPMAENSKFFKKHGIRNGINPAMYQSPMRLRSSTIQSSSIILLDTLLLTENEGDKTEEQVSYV
Experiment: Displacement of [125I]+/-DOI from human recombinant 5-HT2B receptor at 10 uM after 60 mins by scintillation counting analysis relative to control
Details: not given

SMILES | Activity [%]
C/C=C/Cn1cc(-c2cc(OC)c(C(=O)N3CCOCC3)cc2OC)c2cc(C)[nH]c2c1=O | 6

Organism: Homo sapiens
Experiment: Displacement of [3H] Dofetilide from human potassium channel at 10 uM relative to control
Details: not given

SMILES | Activity [%]
C/C=C/Cn1cc(-c2cc(OC)c(C(=O)N3CCOCC3)cc2OC)c2cc(C)[nH]c2c1=O | 18

Reference: ChEMBL document CHEMBL5260810, “Inhibition of bromodomain-containing protein 9 for the prevention of epigenetically-defined drug resistance” (Bioorg Med Chem Lett, 2017)
